Entries after “also recorded” stand apart in the source; their conditions may differ. Counter-ions that a name gives are not always drawn.

The test system of one assay is βTC6 cells. Briefly: Insulin secretion from βTC6 cells (high range insulin Sandwich ELISA kit). It is filed as cell-based. As to conditions: compounds at 10^−12, 10^−9, 10^−6 M; for basal insulin secretion: absence of glucose; for glucose stimulated insulin release: presence of 2.8 mM glucose. As for the experimental part: Secretion of insulin by βTC6 cells was measured using the high range insulin Sandwich ELISA kit.
Similarly, a variety of thiazolidinedione-2,4-dione-pyrimidine derivatives, at 10^−12, 10^−9, 10^−6 M concentrations, were investigated for their effect on insulin secretion in the absence and presence of 2.8 mM glucose from βTC6 cells. […] These compounds also increase insulin secretion in the presence of glucose and, thereby, prevent hyperglycemia.
The effects of rhodanine-pyrimidine derivatives 130a-g were also investigated at 10^−12, 10^−9, 10^−6 M concentrations, for effect on insulin secretion in absence and presence of 2.8 mM glucose in βTC6 cells.
(ELISA stands for enzyme-linked immunosorbent assay.)

The test system of the next assay is β TC6 cells. Briefly: In vitro glucose uptake assay. It is filed as cell-based. The settings on record: each compound at a concentration of 10 μM. As for the experimental part:
FIG. 5A is a bar graph comparing the results of pioglitazone with compounds 130a-g, each at a concentration of 10 μM, for effect on glucose uptake from β TC6 cells.
FIG. 5B is a bar graph comparing the results of pioglitazone with compounds 112, 105a-d, 121, 117, 119, and 126, each at a concentration of 10 μM, for effect on glucose uptake from β TC6 cells.
FIG. 5C is a bar graph comparing the results of metformin with compound 138, each at a concentration of 10 μM, for effect on glucose uptake from β TC6 cells.
The results of the in vitro glucose uptake study are depicted in FIGS. 5A-5C.

`CC(C)Nc1ncc(/C=C2\SC(=S)N(CC(=O)O)C2=O)cn1` [Compound 130d]: in the assay with βTC6 cells, the basal insulin secretion result is listed as “did not show any effect” and the “glucose stimulated insulin release” value is recorded as “did not show any effect”.

On to `Nc1ncc(/C=C2\SC(=S)NC2=O)cn1` [Compound 130b, (Z)-5-[(2′-Aminopyrimidin-5′-yl)methylene]-2-thioxothiazolidin-4-one], for which, in the assay on βTC6 cells, the basal insulin secretion result was “significantly increased”.

With `O=C(O)CN1C(=O)/C(=C/c2cnc(N3CCOCC3)nc2)SC1=S` [Compound 130e], the glucose uptake entry in the assay with β TC6 cells was “most potent activity”. For the same compound, in the assay on βTC6 cells, the basal insulin secretion entry is “significant increases” and the “glucose stimulated insulin release” value is listed as “significant increases”.

For `Cc1cc(O)nc(NC(=O)CN2C(=O)/C(=C\c3ccc(F)cc3)SC2=S)n1` [Compound 126, (E)-2-[5′-(p-Fluorobenzylidene)-4′-oxo-2′-thioxothiazolidin-3′-yl]-N-(4″-hydroxy-6″-methyl-pyrimidin-2″-yl)acetamide], the glucose uptake entry in the assay on β TC6 cells is “enhancing the glucose uptake significantly (p<0.001)”. Besides, in the assay with βTC6 cells, the basal insulin secretion result is on record as “significant decrease” and the “glucose stimulated insulin release” value was “significant increase”.

For the compound `CN(C)c1ncc(/C=C2\SC(=S)N(CC(=O)O)C2=O)cn1` [Compound 130c], in the assay on βTC6 cells, the “glucose stimulated insulin release” value is listed as “significantly increased”.

Regarding `O=C(O)CN1C(=O)/C(=C/c2cnc(NCc3ccccc3)nc2)SC1=S` [Compound 130g, (Z)-2-{5′-[2″-(Benzylamino)pyrimidin-5″-yl]methylene-4′-oxo-2′-thioxothiazolidin-3′-yl}acetic acid], the glucose uptake result with β TC6 cells is listed as “most potent activity; also recorded: enhancing the glucose uptake significantly (p<0.001)”. The “glucose stimulated insulin release” value with βTC6 cells is recorded as “significantly increased”.

As to `C/N=C1/NC(=O)/C(=C\c2ccc(S(=O)(=O)Nc3ccnc(N)n3)cc2)S1` [Compound 105b], in the assay with β TC6 cells, the glucose uptake entry is on record as “most potent activity”. Besides, in the assay on βTC6 cells, the basal insulin secretion entry was “significant decrease” and the “glucose stimulated insulin release” value is listed as “significant increase”.

In the case of `Nc1nccc(NC(=O)CC2SC(=O)NC2=O)n1` (stereo not shown) [Compound 117, N-(2′-Aminopyrimidin-4′-yl)-2-(2″,4″-dioxothiazolidin-5″-yl)acetamide], in the assay with β TC6 cells, the glucose uptake result was “most potent activity”. In addition, the basal insulin secretion result in the assay on βTC6 cells is recorded as “significantly inhibited”.

In the case of `CN(C)c1ncc(/C=C2\SC(=S)NC2=O)cn1` [Compound 130a], in the assay on βTC6 cells, the basal insulin secretion result is “did not show any effect” and the “glucose stimulated insulin release” value is on record as “did not show any effect”.

Regarding `CN=C1NC(=O)/C(=C\c2cnc(Nc3cccc4ccccc34)nc2)S1` [Compound 112], the glucose uptake result in the assay with β TC6 cells was “most potent activity”.

As for `CCCNc1ncc(/C=C2\SC(=S)N(CC(=O)O)C2=O)cn1` [Compound 130f], the glucose uptake entry in the assay with β TC6 cells was “most potent activity”. For the same compound, in the assay with βTC6 cells, the basal insulin secretion result was “significant increases” and the “glucose stimulated insulin release” value is reported as “significant increases”.

For the compound `CN=C1NC(=O)/C(=C\c2ccc(S(=O)(=O)[n+]3ccccc3)cc2)S1` [Compound 105a, 2-(Methylimino)-5-[4′-(N-pyridinesulfonyl)benzylidine]thiazolidin-4-one chloride salt], the glucose uptake result with β TC6 cells is “most potent activity”. Besides, in the assay on βTC6 cells, the basal insulin secretion entry is “significant decrease” and the “glucose stimulated insulin release” value is given as “significant increase”.

With `Nc1nccc(NS(=O)(=O)c2ccc(/C=C3/SC(=O)NC3=O)cc2)n1` [Compound 105c], the glucose uptake entry in the assay on β TC6 cells was “most potent activity”. In the assay on βTC6 cells, the basal insulin secretion result is given as “no effect” and the “glucose stimulated insulin release” value was “significantly increased”.

With `Cc1ccc(S(=O)(=O)NC(=O)Nc2nccc(NC(=O)CC3SC(=O)NC3=O)n2)cc1` (stereo not shown) [Compound 119, 2-(2′,4′-Dioxothiazolidin-5-yl)-N-[2″-(p-tosylureido)pyrimidin-4″-yl]acetamide], the glucose uptake entry in the assay on β TC6 cells is given as “most potent activity”. In the assay with βTC6 cells, the basal insulin secretion result is on record as “significantly increased”.

The record behind these values is patent publication US10689374B1, “Pyrimidine-thiazolidinone derivatives” (UNITED ARAB EMIRATES UNIVERSITY, priority 2019, dated 2020).
